Laboratory results: patent US20250026752A1, “POSITIVE ALLOSTERIC MODULATORS OF THE MUSCARINIC ACETYLCHOLINE RECEPTOR M4” (Vanderbilt University, priority 2021, published 2025)

Target: T1, human mAChR M4 (Homo sapiens, UniProt P08173)
T1 construct: expressed in transfected cells; host or cells: CHO-K1 (ATCC), stably expressing hM4 and Gqi5
T1 sequence (P08173 1-479): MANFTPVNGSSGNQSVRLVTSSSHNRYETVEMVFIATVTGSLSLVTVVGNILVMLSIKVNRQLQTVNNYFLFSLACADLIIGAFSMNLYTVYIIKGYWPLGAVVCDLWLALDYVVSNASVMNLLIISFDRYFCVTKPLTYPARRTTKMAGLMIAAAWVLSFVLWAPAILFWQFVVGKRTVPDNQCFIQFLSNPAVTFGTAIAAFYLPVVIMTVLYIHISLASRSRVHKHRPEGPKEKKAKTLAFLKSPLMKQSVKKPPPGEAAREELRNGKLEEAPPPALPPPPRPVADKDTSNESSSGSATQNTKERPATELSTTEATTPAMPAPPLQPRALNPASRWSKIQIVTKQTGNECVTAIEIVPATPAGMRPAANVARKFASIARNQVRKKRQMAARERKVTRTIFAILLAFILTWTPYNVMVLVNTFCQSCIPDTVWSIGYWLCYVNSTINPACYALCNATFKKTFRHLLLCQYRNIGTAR
Assay: mAChR M4 cell-based functional assay: calcium flux (Fluo-4, FDSS), positive allosteric modulator activity on the EC20 acetylcholine response, hM4-Gqi5 CHO-K1 cells
Settings: for Emax at 30 µM: CHO-K1, human M4, % ACh maximum at 30 μM; for EC50: human M4, PAM activity on EC20 acetylcholine response, calcium flux, read-out: Human M4 EC50
Procedure, shortened: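 Potentiation was taken as the concentration-dependent rise in the EC20 acetylcholine calcium response, fitted by a four-parameter logistic with EC20 as baseline. Fluo-4-loaded hM4-Gqi5 CHO-K1 cells received 11-point, threefold-diluted compound before acetylcholine at 144 s; FDSS read at 1 Hz.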

SMILES: FC(F)(F)c1ccc2ncnc(N3CCc4ncc(N5CCOc6ncccc65)cc4C3)c2c1 [Compound 215, 1-(6-(6-(trifluoromethyl)quinazolin-4-yl)-5,6,7,8-tetrahydro-1,6-naphthyridin-3-yl)-2,3-dihydro-1H-pyrido[2,3-b][1,4]oxazine]
- Emax at 30 µM: 107%
- EC50: 1610 nM

SMILES: Cc1nc(N2CCc3ncc(C(F)(F)F)cc3C2)c2cc(C#N)ccc2n1 [Compound 142, 2-methyl-4-[3-(trifluoromethyl)-7,8-dihydro-5H-1,6-naphthyridin-6-yl]quinazoline-6-carbonitrile]
- Emax at 30 µM: 105%
- EC50: 260 nM

SMILES: Cc1nn(C)cc1-c1cnc2c(c1)CN(c1nc(Cl)nc3ncccc13)CC2 [Compound 9, 2-chloro-4-[3-(1,3-dimethylpyrazol-4-yl)-7,8-dihydro-5H-1,6-naphthyridin-6-yl]pyrido[2,3-d]pyrimidine]
- Emax at 30 µM: 66%
- EC50: 2490 nM

SMILES: Clc1nc(N2CCc3ncc(N4CCOc5ncccc54)cc3C2)c2cccnc2n1 [Compound 95, 1-[6-(2-chloropyrido[2,3-d]pyrimidin-4-yl)-7,8-dihydro-5H-1,6-naphthyridin-3-yl]-2,3-dihydropyrido[2,3-b][1,4]oxazine]
- Emax at 30 µM: 78%
- EC50: 420 nM

SMILES: Cc1nc(N2CCc3ncc(N4CCOc5ncccc54)cc3C2)c2cc(F)ccc2n1 [Compound 85, 1-[6-(6-fluoro-2-methyl-quinazolin-4-yl)-7,8-dihydro-5H-1,6-naphthyridin-3-yl]-2,3-dihydropyrido[2,3-b][1,4]oxazine]
- Emax at 30 µM: 85%
- EC50: 30 nM

SMILES: C[C@@H]1CN(c2cnc3c(c2)CN(c2ncnc4ccc(F)cc24)CC3)CCO1 [Compound 104, (2R)-4-[6-(6-fluoroquinazolin-4-yl)-7,8-dihydro-5H-1,6-naphthyridin-3-yl]-2-methyl-morpholine]
- Emax at 30 µM: 63%
- EC50: 70 nM

SMILES: Cc1nc(N2CCc3ncc(Nc4ccnn4C)cc3C2)c2cc(F)ccc2n1 [Compound 86, 6-(6-fluoro-2-methyl-quinazolin-4-yl)-N-(2-methylpyrazol-3-yl)-7,8-dihydro-5H-1,6-naphthyridin-3-amine]
- Emax at 30 µM: 91%
- EC50: 30 nM

SMILES: FC(F)(F)c1ccc(-c2cnc3c(c2)CN(c2ncnc4ccc(Cl)cc24)CC3)cn1 [Compound 44, 6-chloro-4-[3-[6-(trifluoromethyl)-3-pyridyl]-7,8-dihydro-5H-1,6-naphthyridin-6-yl]quinazoline]
- Emax at 30 µM: 59%
- EC50: 470 nM

SMILES: Fc1ccc2nc(C(F)(F)F)nc(N3CCc4ncc(C(F)(F)F)cc4C3)c2c1 [Compound 173, 6-fluoro-2-(trifluoromethyl)-4-[3-(trifluoromethyl)-7,8-dihydro-5H-1,6-naphthyridin-6-yl]quinazoline]
- Emax at 30 µM: 50%
- EC50: 170 nM

SMILES: COc1ccc2ncnc(N3CCc4ncc(-c5cnc(F)cc5C)cc4C3)c2c1 [Compound 308, 4-(3-(6-fluoro-4-methylpyridin-3-yl)-7,8-dihydro-1,6-naphthyridin-6(5H)-yl)-6-methoxyquinazoline]
- Emax at 30 µM: 71%
- EC50: 110 nM

SMILES: Cc1ccc2ncnc(N3CCc4ncc(C(F)(F)F)cc4C3)c2c1 [Compound 131, 6-methyl-4-[3-(trifluoromethyl)-7,8-dihydro-5H-1,6-naphthyridin-6-yl]quinazoline]
- Emax at 30 µM: 82%
- EC50: 30 nM

SMILES: Cc1ccc2ncnc(N3CCc4ncc(Nc5ccnn5C)cc4C3)c2c1 [Compound 96, N-(2-methylpyrazol-3-yl)-6-(6-methylquinazolin-4-yl)-7,8-dihydro-5H-1,6-naphthyridin-3-amine]
- Emax at 30 µM: 94%
- EC50: 80 nM

SMILES: COc1cc2c(N3CCc4ncc(N5CCCn6nccc65)cc4C3)nc(Cl)nc2cc1F [Compound 102, 2-chloro-4-[3-(6,7-dihydro-5H-pyrazolo[1,5-a]pyrimidin-4-yl)-7,8-dihydro-5H-1,6-naphthyridin-6-yl]-7-fluoro-6-methoxy-quinazoline]
- Emax at 30 µM: 78%
- EC50: 210 nM

SMILES: Cc1nc(N2CCc3ncc(N4CCO[C@@H](c5ccccc5)C4)cc3C2)c2cc(F)ccc2n1 [Compound 222, (S)-4-(6-(6-fluoro-2-methylquinazolin-4-yl)-5,6,7,8-tetrahydro-1,6-naphthyridin-3-yl)-2-phenylmorpholine]
- Emax at 30 µM: 50%
- EC50: 3470 nM

SMILES: Cc1ccc2ncnc(N3CCc4ncc(-c5ccccc5C)cc4C3)c2c1 [Compound 298, 6-methyl-4-(3-(o-tolyl)-7,8-dihydro-1,6-naphthyridin-6(5H)-yl)quinazoline]
- Emax at 30 µM: 100%
- EC50: 1300 nM

SMILES: Clc1nc(N2CCc3ncc(N4CCCn5nccc54)cc3C2)c2cccnc2n1 [Compound 94, 2-chloro-4-[3-(6,7-dihydro-5H-pyrazolo[1,5-a]pyrimidin-4-yl)-7,8-dihydro-5H-1,6-naphthyridin-6-yl]pyrido[2,3-d]pyrimidine]
- Emax at 30 µM: 88%
- EC50: 130 nM

SMILES: Cc1nc(N2CCc3ncc(-c4ccc(C(F)(F)F)nc4)cc3C2)c2cc(F)ccc2n1 [Compound 3, 6-fluoro-2-methyl-4-[3-[6-(trifluoromethyl)-3-pyridyl]-7,8-dihydro-5H-1,6-naphthyridin-6-yl]quinazoline]
- Emax at 30 µM: 75%
- EC50: 460 nM

SMILES: Fc1ccc2nc(C(F)(F)F)nc(N3CCc4ncc(N5CCOc6ncccc65)cc4C3)c2c1 [Compound 112, 1-[6-[6-fluoro-2-(trifluoromethyl)quinazolin-4-yl]-7,8-dihydro-5H-1,6-naphthyridin-3-yl]-2,3-dihydropyrido[2,3-b][1,4]oxazine]
- Emax at 30 µM: 92%
- EC50: 380 nM

SMILES: Cc1ccc2c(N3CCc4ncc(C(F)(F)F)cc4C3)nc(C)nc2c1 [Compound 124, 2,7-dimethyl-4-[3-(trifluoromethyl)-7,8-dihydro-5H-1,6-naphthyridin-6-yl]quinazoline]
- Emax at 30 µM: 43%
- EC50: 950 nM

SMILES: COc1ccc2nc(C)nc(N3CCc4ncc(-c5cc(F)ccc5C)cc4C3)c2c1 [Compound 313, 4-(3-(5-fluoro-2-methylphenyl)-7,8-dihydro-1,6-naphthyridin-6(5H)-yl)-6-methoxy-2-methylquinazoline]
- Emax at 30 µM: 52%
- EC50: 4360 nM

SMILES: c1cnc2nc(NC3CC3)nc(N3CCc4ncc(N5CCCn6nccc65)cc4C3)c2c1 [Compound 244, N-cyclopropyl-4-(3-(6,7-dihydropyrazolo[1,5-a]pyrimidin-4(5H)-yl)-7,8-dihydro-1,6-naphthyridin-6(5H)-yl)pyrido[2,3-d]pyrimidin-2-amine]
- Emax at 30 µM: 70%
- EC50: 240 nM

SMILES: Fc1ccc2nc(Nc3ccccc3F)nc(N3CCc4ncc(C(F)(F)F)cc4C3)c2c1 [Compound 200, 6-fluoro-N-(2-fluorophenyl)-4-[3-(trifluoromethyl)-7,8-dihydro-5H-1,6-naphthyriidn-6-yl]quinazolin-2-amine]
- Emax at 30 µM: 63%
- EC50: > 10000 nM

SMILES: CC1CN(c2ncnc3ccc(F)cc23)Cc2cc(Nc3ncnc4ccc(F)cc34)cnc21 (stereo not shown) [Compound 237, 6-fluoro-N-(6-(6-fluoroquinazolin-4-yl)-8-methyl-5,6,7,8-tetrahydro-1,6-naphthyridin-3-yl)quinazolin-4-amine]
- Emax at 30 µM: 55%
- EC50: 1400 nM

SMILES: OC1(C2CC2)CN(c2nc(N3CCc4ncc(N5CCCn6nccc65)cc4C3)c3cccnc3n2)C1 [Compound 248, 3-cyclopropyl-1-(4-(3-(6,7-dihydropyrazolo[1,5-a]pyrimidin-4(5H)-yl)-7,8-dihydro-1,6-naphthyridin-6(5H)-yl)pyrido[2,3-d]pyrimidin-2-yl)azetidin-3-ol]
- Emax at 30 µM: 82%
- EC50: 300 nM

SMILES: COc1ccc2ncnc(N3CCc4ncc(C5CC5)cc4C3)c2c1 [Compound 161, 4-(3-cyclopropyl-7,8-dihydro-5H-1,6-naphthyridin-6-yl)-6-methoxy-quinazoline]
- Emax at 30 µM: 83%
- EC50: 110 nM

SMILES: Cn1cc(-c2cnc3c(c2)CN(c2ncnc4ccc(F)cc24)CC3)cn1 [Compound 15, 6-fluoro-4-[3-(1-methylpyrazol-4-yl)-7,8-dihydro-5H-1,6-naphthyridin-6-yl]quinazoline]
- Emax at 30 µM: 105%
- EC50: 40 nM

SMILES: Cc1nn(C)cc1-c1cnc2c(c1)CN(c1ncnc3ccc(F)cc13)CC2 [Compound 11, 4-[3-(1,3-dimethylpyrazol-4-yl)-7,8-dihydro-5H-1,6-naphthyridin-6-yl]-6-fluoro-quinazoline]
- Emax at 30 µM: 83%
- EC50: 100 nM

SMILES: FC(F)(F)c1cnc2c(c1)CN(c1nc(Cl)nc3ccccc13)CC2 [Compound 123, 2-chloro-4-[3-(trifluoromethyl)-7,8-dihydro-5H-1,6-naphthyridin-6-yl]quinazoline]
- Emax at 30 µM: 68%
- EC50: 340 nM

SMILES: Cc1nc(N2CCc3ncc(-c4ccc(N(C)C)nc4)cc3C2)c2cc(F)ccc2n1 [Compound 24, 5-[6-(6-fluoro-2-methyl-quinazolin-4-yl)-7,8-dihydro-5H-1,6-naphthyridin-3-yl]-N,N-dimethyl-pyridin-2-amine]
- Emax at 30 µM: 92%
- EC50: 590 nM
